# Key:
# [1] = system: lambsquarters; assay: Test Example 4: herbicidal effect by soil treatment (Table 19, symbol O); assay type: in vivo, lambsquarters (Chenopodium album); details: 320 g/ha
# Procedure, shortened: (§1)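 Step 1: sow seeds in sterilized diluvial soil, cover ~1.5 cm. Step 2: spray diluted emulsion onto soil surface at predetermined rate. Step 3: greenhouse, 25–30° C, three weeks. Step 4: grade effect on each plant by earlier criteria.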
# [2] = system: blackgrass; assay: Test Example 5: herbicidal effect by foliage application, plastic box (Table 20, symbol J); assay type: in vivo, blackgrass (Alopecurus myosuroides); details: foliage application, 320 g/ha, evaluated three weeks after application
# Procedure, shortened: (§2)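 Foliar spray test: emulsion formulation diluted in water to a set application rate, sprayed onto 14-day-old plants raised in diluvial soil at 25° C to 30° C under glass. Both herbicidal effect and crop effect rated visually three weeks later.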
# [3] = system: persian speedwell; assay: Test Example 4: herbicidal effect by soil treatment (Table 19, symbol R); assay type: in vivo, Persian speedwell (Veronica persica); details: 320 g/ha
# Procedure, shortened: as §1
# [4] = system: windgrass; assay: Test Example 4: herbicidal effect by soil treatment (Table 19, symbol L); assay type: in vivo, windgrass (Apera spica-venti); details: 320 g/ha
# Procedure, shortened: as §1
# [5] = system: redroot pigweed; assay: Test Example 5: herbicidal effect by foliage application, plastic box (Table 20, symbol N); assay type: in vivo, redroot pigweed (Amaranthus retroflexus); details: foliage application, 320 g/ha, evaluated three weeks after application
# Procedure, shortened: as §2
# [6] = system: chickweed; assay: Test Example 5: herbicidal effect by foliage application, plastic box (Table 20, symbol P); assay type: in vivo, common chickweed (Stellaria media); details: foliage application, 320 g/ha, evaluated three weeks after application
# Procedure, shortened: as §2
# [7] = system: barnyard grass; assay: Test Example 5: herbicidal effect by foliage application, plastic box (Table 20, symbol H); assay type: in vivo, barnyard grass (Echinochloa crus-galli); details: foliage application, 320 g/ha, evaluated three weeks after application
# Procedure, shortened: as §2
# [8] = system: lambsquarters; assay: Test Example 5: herbicidal effect by foliage application, plastic box (Table 20, symbol O); assay type: in vivo, lambsquarters (Chenopodium album); details: foliage application, 320 g/ha, evaluated three weeks after application
# Procedure, shortened: as §2
# [9] = system: Chinese sprangletop; assay: Test Example 3: herbicidal effect by foliage application, Wagner pot (Table 18, symbol D); assay type: in vivo, chinese sprangletop (Leptochloa chinensis); details: 320 g/ha
# Procedure, shortened: (§3)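 Plants were sown in alluvial soil held under 0.1–0.5 cm standing water and grown 14 days in a greenhouse at 25–30 °C. An emulsifiable formulation, water-diluted to the set dose, was then sprayed onto the foliage, and effects were scored three weeks later using previously defined criteria.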
# [10] = system: Japanese bulrush; assay: Test Example 2: herbicidal activity, application during weed generation under submerged conditions (Table 17, symbol B); assay type: in vivo, Japanese bulrush (Schoenoplectus juncoides); details: AAH 320 g/ha; application during weed generation, submerged conditions
# Procedure, shortened: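 Effect on each weed is rated three weeks post-treatment, using the same scoring criteria as the preceding test. Plants grow from mixed-sown seed in flooded alluvial soil (4 cm water) at 25° C. to 30° C., and are treated at one to two leaves with diluted emulsion dropped onto the water.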
# [11] = system: Japanese bulrush; assay: Test Example 1: herbicidal activity, application before weed generation under submerged conditions (Table 16, symbol B); assay type: in vivo, Japanese bulrush (Schoenoplectus juncoides); details: 320 g/ha applied herbicide
# Procedure, shortened: (§4)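 Alluvial soil was flooded to 4 cm depth, weed seeds were sown mixed and 2.5-leaf rice seedlings were transplanted. On sowing day, the compound's emulsion, diluted in water to a set dose, was applied to the water surface. Plants grew at 25–30 °C and were scored 0–5 after three weeks.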
# [12] = system: southern crabgrass; assay: Test Example 4: herbicidal effect by soil treatment (Table 19, symbol F); assay type: in vivo, southern crabgrass (Digitaria ciliaris); details: 320 g/ha
# Procedure, shortened: as §1
# [13] = system: late watergrass; assay: Test Example 1: herbicidal activity, application before weed generation under submerged conditions (Table 16, symbol A); assay type: in vivo, late watergrass (Echinochloa oryzicola); details: 320 g/ha applied herbicide
# Procedure, shortened: as §4
# [14] = system: barnyard grass; assay: Test Example 4: herbicidal effect by soil treatment (Table 19, symbol H); assay type: in vivo, barnyard grass (Echinochloa crus-galli); details: 320 g/ha
# Procedure, shortened: as §1
# [15] = system: barnyard grass; assay: Test Example 3: herbicidal effect by foliage application, Wagner pot (Table 18, symbol H); assay type: in vivo, barnyard grass (Echinochloa crus-galli); details: 320 g/ha
# Procedure, shortened: as §3
# [16] = system: windgrass; assay: Test Example 5: herbicidal effect by foliage application, plastic box (Table 20, symbol L); assay type: in vivo, windgrass (Apera spica-venti); details: foliage application, 320 g/ha, evaluated three weeks after application
# Procedure, shortened: as §2
Structure (SMILES),"herbicidal effect rating, O: lambsquarters [1]",herbicidal effect on J: blackgrass [2],"herbicidal effect rating, R: persian speedwell [3]","herbicidal effect rating, L: windgrass [4]",herbicidal effect on N: redroot pigweed [5],herbicidal effect on P: chickweed [6],herbicidal effect on H: barnyard grass [7],herbicidal effect on O: lambsquarters [8],"herbicidal effect on D (Chinese sprangletop), rating 0-5 [9]","herbicidal effect rating, B: Japanese bulrush [10]",Herbicidal effect on B: Japanese bulrush (grade 0-5) [11],"herbicidal effect rating, F: southern crabgrass [12]",Herbicidal effect on A: late watergrass (grade 0-5) [13],"herbicidal effect rating, H: barnyard grass [14]","herbicidal effect on H (barnyard grass), rating 0-5 [15]",herbicidal effect on L: windgrass [16]
CON=C(C)c1ccc(-c2sc3ccc(F)cc3c2-c2c(O)c(C)nn(C)c2=O)cc1 [2-079],5 (Herbicidal rate of 90% or more (almost completely withered)),3 (Herbicidal rate of 40% or more and less than 70%),5 (Herbicidal rate of 90% or more (almost completely withered)),0 (Herbicidal rate of 5% or less (almost no effect)),5 (Herbicidal rate of 90% or more (almost completely withered)),5 (Herbicidal rate of 90% or more (almost completely withered)),5 (Herbicidal rate of 90% or more (almost completely withered)),5 (Herbicidal rate of 90% or more (almost completely withered)),4 (Herbicidal rate of 70% or more and less than 90%),0 (Herbicidal rate of 5% or less (almost no effect)),3 (Herbicidal rate of 40% or more and less than 70%),5 (Herbicidal rate of 90% or more (almost completely withered)),1 (Herbicidal rate of 5% or more and less than 20%),4 (Herbicidal rate of 70% or more and less than 90%),5 (Herbicidal rate of 90% or more (almost completely withered)),5 (Herbicidal rate of 90% or more (almost completely withered))
CCCC(=O)Oc1c(C)nn(C)c(=O)c1-c1c(-c2ccc(C(C)=NOC)cc2)sc2ccc(F)cc12 [2-080],5 (Herbicidal rate of 90% or more (almost completely withered)),5 (Herbicidal rate of 90% or more (almost completely withered)),5 (Herbicidal rate of 90% or more (almost completely withered)),2 (Herbicidal rate of 20% or more and less than 40%),5 (Herbicidal rate of 90% or more (almost completely withered)),5 (Herbicidal rate of 90% or more (almost completely withered)),5 (Herbicidal rate of 90% or more (almost completely withered)),5 (Herbicidal rate of 90% or more (almost completely withered)),5 (Herbicidal rate of 90% or more (almost completely withered)),4 (Herbicidal rate of 70% or more and less than 90%),5 (Herbicidal rate of 90% or more (almost completely withered)),2 (Herbicidal rate of 20% or more and less than 40%),5 (Herbicidal rate of 90% or more (almost completely withered)),2 (Herbicidal rate of 20% or more and less than 40%),5 (Herbicidal rate of 90% or more (almost completely withered)),5 (Herbicidal rate of 90% or more (almost completely withered))
CCOc1cc(F)ccc1-c1sc2ccc(F)cc2c1-c1c(O)c(C)nn(C)c1=O [2-084],5 (Herbicidal rate of 90% or more (almost completely withered)),5 (Herbicidal rate of 90% or more (almost completely withered)),5 (Herbicidal rate of 90% or more (almost completely withered)),1 (Herbicidal rate of 5% or more and less than 20%),5 (Herbicidal rate of 90% or more (almost completely withered)),5 (Herbicidal rate of 90% or more (almost completely withered)),5 (Herbicidal rate of 90% or more (almost completely withered)),3 (Herbicidal rate of 40% or more and less than 70%),4 (Herbicidal rate of 70% or more and less than 90%),1 (Herbicidal rate of 5% or more and less than 20%),1 (Herbicidal rate of 5% or more and less than 20%),5 (Herbicidal rate of 90% or more (almost completely withered)),1 (Herbicidal rate of 5% or more and less than 20%),4 (Herbicidal rate of 70% or more and less than 90%),5 (Herbicidal rate of 90% or more (almost completely withered)),4 (Herbicidal rate of 70% or more and less than 90%)
CCCC(=O)Oc1c(C)nn(C)c(=O)c1-c1c(-c2ccc(F)cc2OCC)sc2ccc(F)cc12 [2-085],3 (Herbicidal rate of 40% or more and less than 70%),1 (Herbicidal rate of 5% or more and less than 20%),3 (Herbicidal rate of 40% or more and less than 70%),0 (Herbicidal rate of 5% or less (almost no effect)),4 (Herbicidal rate of 70% or more and less than 90%),5 (Herbicidal rate of 90% or more (almost completely withered)),4 (Herbicidal rate of 70% or more and less than 90%),3 (Herbicidal rate of 40% or more and less than 70%),0 (Herbicidal rate of 5% or less (almost no effect)),3 (Herbicidal rate of 40% or more and less than 70%),3 (Herbicidal rate of 40% or more and less than 70%),4 (Herbicidal rate of 70% or more and less than 90%),4 (Herbicidal rate of 70% or more and less than 90%),3 (Herbicidal rate of 40% or more and less than 70%),5 (Herbicidal rate of 90% or more (almost completely withered)),1 (Herbicidal rate of 5% or more and less than 20%)
